Laboratory results as given in patent publication US11649255B2, “Indazoles as hematopoietic progenitor kinase 1 (HPK1) inhibitors and methods using same” (1st Biotherapeutics, Inc., priority 2020, dated 2023).
Structures can show the parent of a compound that is named as a salt.

Molecular target: recombinant human HPK1 (Homo sapiens (Human), UniProt Q92918)
Assay: HPK1 kinase assay (ADP-Glo)
Assay type: biochemical
Details: 25 μM ATP, MBP substrate
Protocol: HPK1 kinase activity was measured by Promega's ADP-Glo™ kinase assay. In this assay, 5 ng of recombinant human HPK1 (signalchem) is incubated with 5 μL of compounds (0.5% DMSO), 5 μL of MBP (0.5 μg/μl) and 5 μL of ATP (25 μM) in buffer (40 mM Tris, 7.5; 20 mM MgCl2; 0.1 mg/ml BSA; 5 μM DTT). The assay was started by incubating the reaction mixture in a 96-well plate at 30′ C for 40 minutes. After the incubation, 25 uL ADP-Glo reagent was added and the reaction was incubated at room temperature for 40-min to stop the reaction and degrade residual ATP. The ADP product was then converted to ATP by adding 50 uL per well of detection reagent. Luminescence was detected after 30-min room temperature incubation with the Molecular device I3X plate reader. The IC50 values were calculated from a series of percent inhibition values determined at a range of inhibitor concentration using software routines as implemented in the GraphPad Prism 7 software and SigmaPlot13.0.

recombinant human HPK1, sequence (Q92918 whole entry): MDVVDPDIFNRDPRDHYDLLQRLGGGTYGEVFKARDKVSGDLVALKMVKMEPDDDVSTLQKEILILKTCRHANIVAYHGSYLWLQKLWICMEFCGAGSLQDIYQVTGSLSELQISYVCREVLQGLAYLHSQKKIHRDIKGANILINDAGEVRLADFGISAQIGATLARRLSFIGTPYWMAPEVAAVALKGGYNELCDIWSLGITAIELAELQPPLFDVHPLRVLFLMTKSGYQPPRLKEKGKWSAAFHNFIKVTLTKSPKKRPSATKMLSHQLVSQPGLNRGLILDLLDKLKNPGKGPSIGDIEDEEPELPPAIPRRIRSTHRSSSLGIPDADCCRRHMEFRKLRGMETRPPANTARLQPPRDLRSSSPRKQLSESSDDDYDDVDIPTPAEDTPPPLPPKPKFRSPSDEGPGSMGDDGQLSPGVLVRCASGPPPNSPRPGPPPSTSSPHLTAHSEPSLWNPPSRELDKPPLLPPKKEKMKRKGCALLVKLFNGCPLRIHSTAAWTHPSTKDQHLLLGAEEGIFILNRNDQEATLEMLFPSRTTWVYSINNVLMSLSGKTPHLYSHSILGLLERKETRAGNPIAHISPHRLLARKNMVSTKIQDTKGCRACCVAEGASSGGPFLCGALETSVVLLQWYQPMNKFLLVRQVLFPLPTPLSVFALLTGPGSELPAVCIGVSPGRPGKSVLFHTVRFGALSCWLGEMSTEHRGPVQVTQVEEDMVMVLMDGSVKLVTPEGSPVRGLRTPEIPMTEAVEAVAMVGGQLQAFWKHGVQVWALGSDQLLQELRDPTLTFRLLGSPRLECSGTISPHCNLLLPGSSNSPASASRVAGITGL

Compound | IC50 [µM]
O=C(Nc1cn2cc(-c3c(Cl)c(F)c(C4CCCC4O)c4[nH]ncc34)ccc2n1)[C@@H]1C[C@@H]1F (stereo partly drawn) [Example 410, (1S,2S)-N-(6-(5-chloro-6-fluoro-7-(2-hydroxycyclopentyl)-1H-indazol-4-yl)imidazo[1,2-a]pyridin-2-yl)-2-fluorocyclopropane-1-carboxamide] | < 0.1
CCc1c(F)cc2[nH]ncc2c1-c1ccc2nc(NC(=O)[C@@H]3C[C@@H]3F)cn2c1 [Example 294, (1S,2S)-N-(6-(5-ethyl-6-fluoro-1H-indazol-4-yl)imidazo[1,2-a]pyridin-2-yl)-2-fluorocyclopropane-1-carboxamide] | < 0.1
CCc1c(F)cc2[nH]ncc2c1-c1ccc2nc(NC(=O)[C@@H]3C[C@@H]3F)sc2c1 [Example 46, (1S,2S)-N-(6-(5-ethyl-6-fluoro-1H-indazol-4-yl)benzo[d]thiazol-2-yl)-2-fluorocyclopropane-1-carboxamide] | < 0.1
CN(C)C(=O)c1c(F)cc(-c2ccc3nc(NC(=O)[C@@H]4C[C@@H]4F)sc3c2)c2cn[nH]c12 [Example 144, 6-fluoro-4-(2-((1S,2S)-2-fluorocyclopropane-1-carboxamido)benzo[d]thiazol-6-yl)-N,N-dimethyl-1H-indazole-7-carboxamide] | 0.101 to 0.5
O=C(Nc1cc2cc(-c3c(Cl)c(F)c(NC4CCC(O)CC4)c4[nH]ncc34)ccn2n1)[C@@H]1C[C@@H]1F (stereo partly drawn) [Example 517, (1S,2S)-N-(5-(5-chloro-6-fluoro-7-((4-hydroxycyclohexyl)amino)-1H-indazol-4-yl)pyrazolo[1,5-a]pyridin-2-yl)-2-fluorocyclopropane-1-carboxamide] | < 0.1
CCc1c(F)c(N(CC)CC)c2[nH]ncc2c1-c1ccn2nc(NC(=O)[C@@H]3C[C@@H]3F)cc2c1 [Example 518, (1S,2S)-N-(5-(7-(diethylamino)-5-ethyl-6-fluoro-1H-indazol-4-yl)pyrazolo[1,5-a]pyridin-2-yl)-2-fluorocyclopropane-1-carboxamide] | < 0.1
C[C@H](c1c(F)c(Cl)c(-c2ccc3nc(NC(=O)[C@@H]4C[C@@H]4F)cn3c2)c2cn[nH]c12)n1ncnn1 [Example 407, (1S,2S)-N-(6-(7-((R)-1-(2H-tetrazol-2-yl)ethyl)-5-chloro-6-fluoro-1H-indazol-4-yl)imidazo[1,2-a]pyridin-2-yl)-2-fluorocyclopropane-1-carboxamide] | < 0.1
CS(=O)(=O)c1c(F)c(Cl)c(-c2ccc3nc(NC(=O)[C@@H]4C[C@@H]4F)cn3c2)c2cn[nH]c12 [Example 267, (1S,2S)-N-(6-(5-chloro-6-fluoro-7-(methylsulfonyl)-1H-indazol-4-yl)imidazo[1,2-a]pyridin-2-yl)-2-fluorocyclopropane-1-carboxamide] | 0.101 to 0.5
COC(=O)c1c(F)c(Cl)c(-c2ccc3nc(NC(=O)[C@@H]4C[C@@H]4F)cn3c2)c2cn[nH]c12 [Example 315, methyl 5-chloro-6-fluoro-4-(2-((1S,2S)-2-fluorocyclopropane-1-carboxamido)imidazo[1,2-a]pyridin-6-yl)-1H-indazole-7-carboxylate] | < 0.1
Cc1c(F)c(C(=O)O)c2[nH]ncc2c1-c1ccc2nc(NC(=O)[C@@H]3C[C@@H]3F)sc2n1 [Example 188, 6-fluoro-4-(2-((1S,2S)-2-fluorocyclopropane-1-carboxamido)thiazolo[5,4-b]pyridin-5-yl)-5-methyl-1H-indazole-7-carboxylic acid] | > 1
Cc1c(F)c(Cl)c2[nH]ncc2c1-c1ccc2nc(NC(=O)[C@@H]3C[C@@H]3F)cn2c1 [Example 260, (1S,2S)-N-(6-(7-chloro-6-fluoro-5-methyl-1H-indazol-4-yl)imidazo[1,2-a]pyridin-2-yl)-2-fluorocyclopropane-1-carboxamide] | < 0.1
C[S+]([O-])c1c(F)c(Cl)c(-c2ccc3nc(NC(=O)[C@@H]4C[C@@H]4F)sc3n2)c2cn[nH]c12 (stereo partly drawn) [Example 180, (1S,2S)-N-(5-(5-chloro-6-fluoro-7-(methylsulfinyl)-1H-indazol-4-yl)thiazolo[5,4-b]pyridin-2-yl)-2-fluorocyclopropane-1-carboxamide] | 0.101 to 0.5
CC(C)c1c(F)cc2[nH]ncc2c1-c1ccc2nc(NC(=O)[C@@H]3C[C@@H]3F)sc2n1 [Example 150, (1S,2S)-2-fluoro-N-(5-(6-fluoro-5-isopropyl-1H-indazol-4-yl)thiazolo[5,4-b]pyridin-2-yl)cyclopropane-1-carboxamide] | < 0.1
N#C/C=C/c1c(F)c(Cl)c(-c2ccn3nc(NC(=O)[C@@H]4C[C@@H]4F)cc3c2)c2cn[nH]c12 [Example 633, (1S,2S)-N-(5-(5-chloro-7-((E)-2-cyanovinyl)-6-fluoro-1H-indazol-4-yl)pyrazolo[1,5-a]pyridin-2-yl)-2-fluorocyclopropane-1-carboxamide] | < 0.1
C=C(C)c1c(F)c(Cl)c(-c2ccn3nc(NC(=O)[C@@H]4C[C@@H]4F)cc3c2)c2cn[nH]c12 [Example 639, (1S,2S)-N-(5-(5-chloro-6-fluoro-7-(prop-1-en-2-yl)-1H-indazol-4-yl)pyrazolo[1,5-a]pyridin-2-yl)-2-fluorocyclopropane-1-carboxamide] | < 0.1
CN(c1nccnn1)c1c(F)c(Cl)c(-c2ccn3nc(NC(=O)[C@@H]4C[C@@H]4F)cc3c2)c2cn[nH]c12 [Example 618, (1S,2S)-N-(5-(5-chloro-6-fluoro-7-(methyl(1,2,4-triazin-3-yl)amino)-1H-indazol-4-yl)pyrazolo[1,5-a]pyridin-2-yl)-2-fluorocyclopropane-1-carboxamide] | < 0.1
CN1CCN(c2c(F)c(Cl)c(-c3ccc4nc(NC(=O)[C@@H]5C[C@@H]5F)cn4c3)c3cn[nH]c23)C1=O [Example 358, (1S,2S)-N-(6-(5-chloro-6-fluoro-7-(3-methyl-2-oxoimidazolidin-1-yl)-1H-indazol-4-yl)imidazo[1,2-a]pyridin-2-yl)-2-fluorocyclopropane-1-carboxamide] | < 0.1
O=C(Nc1cn2cc(-c3c(Cl)c(F)c(F)c4[nH]ncc34)ccc2n1)[C@@H]1C[C@@H]1F [Example 323, (1S,2S)-N-(6-(5-chloro-6,7-difluoro-1H-indazol-4-yl)imidazo[1,2-a]pyridin-2-yl)-2-fluorocyclopropane-1-carboxamide] | < 0.1
CNC(C)c1c(F)c(Cl)c(-c2ccc3nc(NC(=O)[C@@H]4C[C@@H]4F)cn3c2)c2cn[nH]c12 (stereo partly drawn) [Example 402, (1S,2S)-N-(6-(5-chloro-6-fluoro-7-(1-(methylamino)ethyl)-1H-indazol-4-yl)imidazo[1,2-a]pyridin-2-yl)-2-fluorocyclopropane-1-carboxamide] | 0.101 to 0.5
CSc1c(F)c(Cl)c(-c2ccc3nc(NC(=O)[C@@H]4C[C@@H]4F)sc3c2)c2cn[nH]c12 [Example 58, (1S,2S)-N-(6-(5-chloro-6-fluoro-7-(methylthio)-1H-indazol-4-yl)benzo[d]thiazol-2-yl)-2-fluorocyclopropane-1-carboxamide] | < 0.1
CC(c1c(F)c(Cl)c(-c2ccc3nc(NC(=O)[C@@H]4C[C@@H]4F)cn3c2)c2cn[nH]c12)N(C)C (stereo partly drawn) [Example 396, (1S,2S)-N-(6-(5-chloro-7-(1-(dimethylamino)ethyl)-6-fluoro-1H-indazol-4-yl)imidazo[1,2-a]pyridin-2-yl)-2-fluorocyclopropane-1-carboxamide. Formaic acid salt] | < 0.1
